Measurements taken from paper PMC8691750, “Euphorbia Factor L2 ameliorates the Progression of K/BxN Serum-Induced Arthritis by Blocking TLR7 Mediated IRAK4/IKKβ/IRF5 and NF-kB Signaling Pathways” (Frontiers in Pharmacology, 2021).
“Also recorded” adds a separate entry of the source.

How the values were obtained:
[1] = tested on: K/BxN serum-transfer arthritis (STA) model; test: K/BxN serum-transfer arthritis (STA) model, arthritic index / clinical score; format: in vivo, C57BL/6 mice; conditions: STA mice
Procedure: K/BxN serum was collected from K/BxN mice at 8 weeks of age, pooled, aliquoted and stored at -20 °C. K/BxN serum-transfer arthritis (STA) model was induced by intraperitoneal (i.p.) application of 150 μL of serum at day 0. Clinical score for arthritis severity was assessed using a 0–4 point scale for each paw at various time points (0–16 total score) as described previously ([Luo et al., 2011]). 8-week old male C57BL/6 mice were purchased from Dashuo Animal Center (China, Chengdu), maintained at 25°C, and exposed to 12-h light and dark cycles. Mice were fed with standard laboratory chow and water with 1 week of acclimatization. Naive mice were used as the control group. Except the control mice, all mice were i. p. injected with 150 μL of serum, then randomly divided into the following groups and treated with different compounds daily for the consecutive 8 days: 1) STA group; 2) Solvent control group, mice were gavaged with the solvent; 3) Dexamethasone (DEX) group, mice were gavaged with 30 mg/kg DEX; 4) EFL2 group 1, mice were gavaged with 40 mg/kg EFL2; 5) EFL2 group 2, mice were intraperitoneally injected with 15 mg/kg EFL2; 6) EFL2 group 3, […] were intraperitoneally injected with 40 mg/kg EFL2. […] All animal experiments were conducted in accordance with ethical regulation for animal care and use in China.

[2] = tested on: TLR7 (R837) / TLR3 (poly:IC) induced cytokine production in BMDMs; test: ELISA of IL-1β and IL-6 in supernatant of R837 and/or poly:IC stimulated BMDMs; format: cell-based, C57BL/6 mice
Procedure: RAW264.7 cells, a mouse macrophage cell line, were cultured in DMEM medium containing 10% fetal bovine serum (FBS), 1% penicillin-streptomycin and maintained at 37 °C in 5% CO2 humidified air. Bone marrow-derived macrophages (BMDMs) generation was performed as following description. In brief, bone marrow cells were harvested from tibias and femurs of C57BL/6 mice and differentiated for 7 days in DMEM medium supplemented with 10% FBS, 1% penicillin-streptomycin and 50 ng/ml M-CSF. For human peripheral blood mononuclear cells (PBMCs) preparation, 5 ml peripheral venous blood was obtained from healthy donors in West China Hospital. PBMCs were isolated with Human Lymphocyte Separation Medium (LTS1077, Tian Jing, China) according to the manufacturer’s instructions. The experimental protocols were performed according to the approved guidelines established by the Institutional Human Research Subject Protection Committee of the Ethics Committee of West China Hospital, Sichuan University, China.
RAW264.7 cells (5×10^5/ml), BMDMs (5×10^5/ml) and PBMCs (2×10^6/ml) were plated in 96-well plates and incubated overnight. […] For the anti-inflammatory molecular mechanism study, RAW264.7 cells (5×10^5/ml) were plated in 96-well plates and stimulated with R837 (20 μg/ml) with or without the addition of NF-κB inhibitor (JSH-23, […]) for 24 h. After 24 h, the culture supernatant was collected for cytokines measurements.
IL-4, IL-17A and TNF-α in sera from different group mice were measured using CBA Multiplex kit (BD, United States). The concentrations of IL-1β and IL-6 in serum or supernatant were detected by ELISA Kit (MULTI SCIENCES, China) according to the manufacturers’ instructions.

[3] = tested on: TLR7-mediated IRAK4/IKKβ/IRF5 signaling pathway; test: Western blot, IRAK4/IKKβ/IRF5 in R837-stimulated RAW264.7 cells; format: cell-based, mouse; conditions: R837-stimulated RAW264.7
Procedure: RAW264.7 cells (2×10^6 cells/well) were plated into 6-well plates and then incubated at 37°C in 5% CO2 for 24 h. After incubated with various concentrations of EFL2 (1, 5 and 10 µM) for 1 h, cells were then stimulated by R837 (20 μg/ml) for 30 min. Cell lysates were prepared by direct lysis in 20 µL IP buffer (Beyotime Biotechnology, Shanghai, China). After obtaining the whole cell extracts, the cytosolic and nuclear were seperated using Nuclear and Cytoplasmic Protein Extraction Kit (Beyotime Biotechnology, Shanghai, China). BCA Protein Assay Kit (Beyotime Biotechnology, Nantong, China) was applied to determine the protein concentrations. The bands corresponding to p- IKKα/β, IKKα/β, p-IκBα, IκBα, p-p65, p65, p-IRAK4, IRAK4, p-IKKβ, IKKβ, p-IRF5, IRF5, β-actin and Lamin B were visualized using a Western Blot Detection Chemiluminescence Kit (Merck). Protein extracted from the total lysates/cytoplasm and nucleus was quantified in relation to β-actin and Lamin B bands, respectively.
The antibodies used in the experiments were as follows: rabbit anti-mouse IKKα/β polyclonal antibody (1:1,000, Abways, China), rabbit anti-mouse IκBα polyclonal antibody (1:1,000, Abgent, China), rabbit anti-mouse p65 polyclonal antibody (1:1,000, Abgent, China), rabbit anti-mouse phosphorylated IKKα (Ser176)/β (Ser177) (1:1,000, Abways, China), rabbit anti-mouse phosphorylated IκBα (1:1,000, Abcam, United States), rabbit anti-mouse phosphorylated p65 (1:1,000, Abcam, United States), rabbit anti-mouse IRAK4 polyclonal antibody (1:1,000, Proteintech, United States), rabbit anti-mouse phosphorylated IRAK4 (Thr345/Ser346) (1:1,000, Affinity, United States), rabbit anti-mouse IKKβ polyclonal antibody (1:1,000, Abbkine, United States), rabbit anti-mouse phosphorylated IKKβ (Ser177) (1:1,000, Abways, China), rabbit anti-mouse IRF5 polyclonal antibody (1:1,000, Immunoway, United States), rabbit anti-mouse phosphorylated IRF5 (Ser437) (1:1,000, Affinity, United States), anti-mouse actin monoclonal antibody (1:20,000, Transgen, China) and rabbit anti-mouse LaminB monoclonal antibody (1:5,000, Abways, China).

C=C1C(OC(=O)c2ccccc2)CC2C(C=C(C)C(=O)C3(OC(C)=O)CC(C)C(OC(=O)c4ccccc4)C3C1OC(C)=O)C2(C)C (stereo not shown) [EFL2, Euphorbia factor L2]
arthritis symptoms (clinical score) ([1]; EFL2 15 mg/kg i.p. daily, particularly acute phase): to a moderate extent, alleviated
joint swelling and redness (clinical score) ([1]; EFL2 40 mg/kg i.p. daily): dramatically improved
arthritis severity (clinical score) ([1]; EFL2 40 mg/kg oral (gavage) daily, 40 mg/kg): did not affect; also recorded: hardly improved
levels of IL-1β and IL-6 in the supernatant ([2]; BMDMs co-stimulated by poly (I:C) and R837, various concentrations of EFL2): to different expent decreased
IL-6 production ([2]; R837-stimulated BMDMs, EFL2 0.1-10 μM): dose-dependently reduced
IL-1β secretion ([2]; R837-stimulated BMDMs, EFL2 at 0.1 μM): effectively inhibit
IRF5 translocation (cytoplasm to nucleus) ([3]; EFL2 at 5 and 10 μM, also immunofluorescence): effectively blocked
phosphorylation of IKKβ ([3]; EFL2 pretreatment 1, 5, 10 μM): significantly suppressed
phosphorylation of IRAK4 ([3]; EFL2 pretreatment 1, 5, 10 μM): significantly suppressed
phosphorylation of IRF5 ([3]; EFL2 pretreatment 1, 5, 10 μM): significantly suppressed
